{"source": "ChEMBL document CHEMBL1136658", "about": "“Design and synthesis of potent, non-peptide inhibitors of HCV NS3 protease” (Bioorg Med Chem Lett, 2003)", "note": "Peptide text beside a SMILES is read from it. * marks the point of attachment. X1 = C=CC[C@H](N*)B1OC2CC3CC(C3(C)C)[C@@]2(C)O1", "data": [{"biological_target": "T1, NS3 (Hepatitis C virus, UniProt A3EZJ3)", "T1 sequence (A3EZJ3 whole entry)": "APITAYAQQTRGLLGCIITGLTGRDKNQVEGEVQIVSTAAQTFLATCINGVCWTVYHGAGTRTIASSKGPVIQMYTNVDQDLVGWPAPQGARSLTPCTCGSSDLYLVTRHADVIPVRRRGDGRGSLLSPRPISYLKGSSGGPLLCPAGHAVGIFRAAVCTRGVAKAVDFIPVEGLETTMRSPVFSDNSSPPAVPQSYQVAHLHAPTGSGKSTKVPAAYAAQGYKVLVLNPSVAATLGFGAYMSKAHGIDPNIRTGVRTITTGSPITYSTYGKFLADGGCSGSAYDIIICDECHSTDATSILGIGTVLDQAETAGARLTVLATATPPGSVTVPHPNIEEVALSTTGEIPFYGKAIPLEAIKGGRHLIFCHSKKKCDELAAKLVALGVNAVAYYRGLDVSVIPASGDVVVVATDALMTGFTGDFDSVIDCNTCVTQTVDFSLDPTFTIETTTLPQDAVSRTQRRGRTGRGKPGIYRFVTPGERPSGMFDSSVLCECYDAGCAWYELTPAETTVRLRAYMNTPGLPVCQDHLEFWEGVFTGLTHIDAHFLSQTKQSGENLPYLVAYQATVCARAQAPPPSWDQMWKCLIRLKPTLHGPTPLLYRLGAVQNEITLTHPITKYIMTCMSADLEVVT", "assay": "Inhibitory concentration against HCV NS3 protease.", "set-up": "species or system Hepacivirus hominis", "units": {"IC50": "nM"}, "values": [{"smiles": "C=CC[C@H](NC(=O)[C@@H]1CCc2c(Cl)nc(NCc3cccc(C(F)(F)F)c3)c(=O)n21)B1OC2CC3CC(C3(C)C)[C@@]2(C)O1", "note": "(stereo not given in full)", "IC50": 4600}, {"smiles": "C=CC[C@H](NC(=O)[C@@H]1C[C@@H](Cc2ccccc2)c2c(Cl)nc(NCc3cccc(C(F)(F)F)c3)c(=O)n21)B1OC2CC3CC(C3(C)C)[C@@]2(C)O1", "note": "(stereo not given in full)", "IC50": 260}, {"smiles": "C=CC[C@H](NC(=O)[C@@H]1C[C@@H](Cc2ccc(-c3ccccc3)cc2)c2c(Cl)nc(NCc3cccc(C(F)(F)F)c3)c(=O)n21)B1OC2CC3CC(C3(C)C)[C@@]2(C)O1", "note": "(stereo not given in full)", "IC50": 60}, {"smiles": "C=CC[C@H](NC(=O)[C@@H]1C[C@@H](Cc2ccc(OC)cc2)c2c(Cl)nc(NCc3cccc(C(F)(F)F)c3)c(=O)n21)B1OC2CC3CC(C3(C)C)[C@@]2(C)O1", "note": "(stereo not given in full)", "IC50": 50}, {"smiles": "C=CC[C@H](NC(=O)[C@@H]1C[C@@H](CCCc2cccc3ccccc23)c2c(Cl)nc(NCc3ccc(O)c(O)c3)c(=O)n21)B1OC2CC3CC(C3(C)C)[C@@]2(C)O1", "note": "(stereo not given in full)", "IC50": 110}, {"smiles": "C=CC[C@H](NC(=O)[C@@H]1C[C@@H](CCCc2ccc3ccccc3c2)c2c(Cl)nc(NCc3ccccc3)c(=O)n21)B1OC2CC3CC(C3(C)C)[C@@]2(C)O1", "note": "(stereo not given in full)", "IC50": 240}, {"smiles": "C=CC[C@H](NC(=O)[C@@H]1C[C@@H](CCCc2ccc3ccccc3c2)c2c(Cl)nc(NCC3CCCCC3)c(=O)n21)B1OC2CC3CC(C3(C)C)[C@@]2(C)O1", "note": "(stereo not given in full)", "IC50": 200}, {"smiles": "C=CC[C@H](NC(=O)[C@@H]1C[C@H](CCCc2ccccc2)c2c(Cl)nc(NCc3cccc(C(F)(F)F)c3)c(=O)n21)B1OC2CC3CC(C3(C)C)[C@@]2(C)O1", "note": "(stereo not given in full)", "IC50": 2000}, {"smiles": "C=CC[C@H](NC(=O)[C@@H]1C[C@@H](CCCc2ccc3ccccc3c2)c2c(Cl)nc(N)c(=O)n21)B1OC2CC3CC(C3(C)C)[C@@]2(C)O1", "note": "(stereo not given in full)", "IC50": 190}, {"smiles": "CC[C@H](NC(=O)[C@@H]1C[C@@H](CCCc2ccc3ccccc3c2)c2c(Cl)nc(NCc3cccc(C(F)(F)F)c3)c(=O)n21)B1OC2CC3CC(C3(C)C)[C@@]2(C)O1", "note": "(stereo not given in full)", "IC50": 20}, {"smiles": "C=CC[C@H](NC(=O)[C@@H]1C[C@@H](CCCc2ccc3ccccc3c2)c2c(Cl)nc(NCc3cccc(C(F)(F)F)c3)c(=O)n21)B1OC2CC3CC(C3(C)C)[C@@]2(C)O1", "note": "(stereo not given in full)", "IC50": 20}, {"smiles": "C=CC[C@H](NC(=O)[C@@H]1C[C@@H](CCCc2ccc3ccccc3c2)c2c(Cl)nc(NCc3ccccn3)c(=O)n21)B1OC2CC3CC(C3(C)C)[C@@]2(C)O1", "note": "(stereo not given in full)", "IC50": 90}, {"smiles": "C=CC[C@H](NC(=O)[C@@H]1C[C@@H](Cc2cccc(C)c2)c2c(Cl)nc(NCc3cccc(C(F)(F)F)c3)c(=O)n21)B1OC2CC3CC(C3(C)C)[C@@]2(C)O1", "note": "(stereo not given in full)", "IC50": 400}, {"smiles": "C=CC[C@H](NC(=O)[C@@H]1C[C@H](CCCc2ccc3ccccc3c2)c2c(Cl)nc(NCc3cccc(C(F)(F)F)c3)c(=O)n21)B1OC2CC3CC(C3(C)C)[C@@]2(C)O1", "note": "(stereo not given in full)", "IC50": 510}, {"smiles": "C=CC[C@H](NC(=O)[C@@H]1C[C@@H](CCCc2ccc3ccccc3c2)c2c(Cl)nc(NCCCC)c(=O)n21)B1OC2CC3CC(C3(C)C)[C@@]2(C)O1", "note": "(stereo not given in full)", "IC50": 160}, {"smiles": "C=CC[C@H](NC(=O)[C@@H]1C[C@@H](Cc2ccc(C)cc2)c2c(Cl)nc(NCc3cccc(C(F)(F)F)c3)c(=O)n21)B1OC2CC3CC(C3(C)C)[C@@]2(C)O1", "note": "(stereo not given in full)", "IC50": 60}, {"smiles": "C=CC[C@H](NC(=O)[C@@H]1C[C@@H](CCCc2ccccc2)c2c(Cl)nc(NCc3cccc(C(F)(F)F)c3)c(=O)n21)B1OC2CC3CC(C3(C)C)[C@@]2(C)O1", "note": "(stereo not given in full)", "IC50": 60}, {"smiles": "C=CC[C@H](NC(=O)[C@@H]1C[C@@H](CCCc2cccc3ccccc23)c2c(Cl)nc(NCCC)c(=O)n21)B1OC2CC3CC(C3(C)C)[C@@]2(C)O1", "note": "(stereo not given in full)", "IC50": 180}, {"smiles": "C=CC[C@H](NC(=O)[C@@H]1C[C@@H](CCCc2cccc3ccccc23)c2c(Cl)nc(NCC(C)C)c(=O)n21)B1OC2CC3CC(C3(C)C)[C@@]2(C)O1", "note": "(stereo not given in full)", "IC50": 170}, {"smiles": "C=CC[C@H](NC(=O)[C@@H]1C[C@@H](Cc2cccc(OC)c2)c2c(Cl)nc(NCc3cccc(C(F)(F)F)c3)c(=O)n21)B1OC2CC3CC(C3(C)C)[C@@]2(C)O1", "note": "(stereo not given in full)", "IC50": 260}, {"smiles": "C=CC[C@H](NC(=O)[C@@H]1C[C@@H](CCCc2ccc3ccccc3c2)c2c(Cl)nc(NCc3cccc(OC)c3)c(=O)n21)B1OC2CC3CC(C3(C)C)[C@@]2(C)O1", "note": "(stereo not given in full)", "IC50": 60}, {"smiles": "C=CC[C@H](NC(=O)[C@@H]1C[C@@H](CCCc2ccc3ccccc3c2)c2c(Cl)nc(NC)c(=O)n21)B1OC2CC3CC(C3(C)C)[C@@]2(C)O1", "note": "(stereo not given in full)", "IC50": 320}, {"smiles": "C=CC[C@H](NC(=O)[C@@H]1C[C@@H](CCCc2cccc3ccccc23)c2c(Cl)nc(NCc3cccc(F)c3)c(=O)n21)B1OC2CC3CC(C3(C)C)[C@@]2(C)O1", "note": "(stereo not given in full)", "IC50": 60}, {"smiles": "C=CC[C@H](NC(=O)[C@@H]1C[C@@H](CCCc2cccc3ccccc23)c2c(Cl)nc(NCC)c(=O)n21)B1OC2CC3CC(C3(C)C)[C@@]2(C)O1", "note": "(stereo not given in full)", "IC50": 230}]}, {"biological_target": "T1, NS3", "assay": "Inhibitory concentration against HCV NS3 protease was determined", "set-up": "species or system Hepacivirus hominis", "units": {"Ki": "nM"}, "values": [{"smiles": "C=CC[C@H](NC(=O)[C@@H]1CCCN1C(=O)[C@@H](NC(=O)[C@@H](NC(=O)[C@H](CCC(=O)O)NC(=O)[C@H](CC(=O)O)NC(C)=O)C(C)C)C(C)C)B1OC2CC3CC(C3(C)C)[C@@]2(C)O1", "note": "(stereo not given in full) (Ac-DEVVP-X1)", "Ki": 4}]}]}
